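Method: 48-hour compound exposure of cells in 96-well plates, five concentrations, linear interpolation of endpoints. At the GI50, growth is halved.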 The source made the active and inactive calls. No stated cut-off is given here; in the data, active = GI50 up to about 1.1 µM and inactive = higher. Residues, ends and D or L forms follow the SMILES beside them. *: point of attachment. OBn = c1ccc(CO*)cc1
Tests used:
Assay in all cases: growth of human tumour cells (NCI), 48 h
786-0 = system: 786-0
A498 = system: A498
A549 = system: A549
ACHN = system: ACHN
BT-549 = system: BT-549
CAKI-1 = system: CAKI-1
CCRF-CEM = system: CCRF-CEM
COLO 205 = system: COLO 205
DU-145 = system: DU-145
EKVX = system: EKVX
HCC 2998 = system: HCC 2998
HCT-116 = system: HCT-116
HCT-15 = system: HCT-15
HOP-62 = system: HOP-62
HOP-92 = system: HOP-92
HT-29 = system: HT-29
Hs-578T = system: Hs-578T
IGROV-1 = system: IGROV-1
K562 = system: K562
KM12 = system: KM12
LOX IMVI = system: LOX IMVI
M14 = system: M14
MCF7 = system: MCF7
MDA-MB-231 = system: MDA-MB-231
MDA-MB-435 = system: MDA-MB-435
MDA-N = system: MDA-N
MOLT-4 = system: MOLT-4
Malme-3M = system: Malme-3M
NCI-H226 = system: NCI-H226
NCI-H23 = system: NCI-H23
NCI-H460 = system: NCI-H460
NCI-H522 = system: NCI-H522
NCI/ADR-RES = system: NCI/ADR-RES
OVCAR-3 = system: OVCAR-3
OVCAR-4 = system: OVCAR-4
OVCAR-5 = system: OVCAR-5
OVCAR-8 = system: OVCAR-8
PC-3 = system: PC-3
RPMI-8226 = system: RPMI-8226
RXF 393 = system: RXF 393
SF-268 = system: SF-268
SF-295 = system: SF-295
SF-539 = system: SF-539
SK-MEL-28 = system: SK-MEL-28
SK-MEL-2 = system: SK-MEL-2
SK-MEL-5 = system: SK-MEL-5
SK-OV-3 = system: SK-OV-3
SN12C = system: SN12C
SNB-19 = system: SNB-19
SNB-75 = system: SNB-75
SW-620 = system: SW-620
T47D = system: T47D
TK-10 = system: TK-10
U-251 = system: U-251
UACC-257 = system: UACC-257
UACC-62 = system: UACC-62
UO-31 = system: UO-31
HL-60 = system: HL-60
SR = system: SR

For `COc1ccc(-n2c(=O)n(C)c(=O)n2-c2c(C)c(C)c(C)c(C)c2C)cc1`, the GI50 (786-0) was > 100 µM (inactive), the GI50 (A498) was > 100 µM (inactive) and the GI50 (A549) was > 100 µM (inactive). The GI50 (ACHN) was > 100 µM (inactive), the GI50 (BT-549) was > 100 µM (inactive) and the GI50 (CAKI-1) was > 100 µM (inactive). For the same compound, the GI50 (CCRF-CEM) was 0.148 µM (active), the GI50 (COLO 205) was > 100 µM (inactive) and the GI50 (DU-145) was > 100 µM (inactive). The GI50 (EKVX) was > 100 µM (inactive), the GI50 (HCC 2998) was > 100 µM (inactive) and the GI50 (HCT-116) was > 100 µM (inactive). The GI50 (HCT-15) was > 100 µM, the GI50 (HOP-62) was > 100 µM (inactive) and the GI50 (HOP-92) was > 100 µM (inactive). The GI50 (HT-29) was > 100 µM (inactive), the GI50 (Hs-578T) was > 100 µM (inactive) and the GI50 (IGROV-1) was > 100 µM (inactive). For the same compound, the GI50 (K562) was > 100 µM (inactive), the GI50 (KM12) was > 100 µM (inactive) and the GI50 (LOX IMVI) was > 100 µM (inactive). For the same compound, the GI50 (M14) was > 100 µM (inactive), the GI50 (MCF7) was > 100 µM (inactive) and the GI50 (MDA-MB-231) was > 100 µM (inactive). For the same compound, the GI50 (MDA-MB-435) was > 100 µM (inactive), the GI50 (MDA-N) was > 100 µM (inactive) and the GI50 (MOLT-4) was > 100 µM (inactive). The GI50 (Malme-3M) was > 100 µM (inactive), the GI50 (NCI-H226) was > 100 µM (inactive) and the GI50 (NCI-H23) was > 100 µM (inactive). For the same compound, the GI50 (NCI-H460) was > 100 µM (inactive), the GI50 (NCI-H522) was > 100 µM (inactive) and the GI50 (NCI/ADR-RES) was > 100 µM (inactive). For the same compound, the GI50 (OVCAR-3) was > 100 µM (inactive), the GI50 (OVCAR-4) was > 100 µM (inactive) and the GI50 (OVCAR-5) was > 100 µM (inactive). For the same compound, the GI50 (OVCAR-8) was > 100 µM (inactive), the GI50 (PC-3) was > 100 µM (inactive) and the GI50 (RPMI-8226) was > 100 µM (inactive). For the same compound, the GI50 (RXF 393) was > 100 µM (inactive), the GI50 (SF-268) was > 100 µM (inactive) and the GI50 (SF-295) was > 100 µM (inactive). For the same compound, the GI50 (SF-539) was > 100 µM (inactive), the GI50 (SK-MEL-28) was > 100 µM (inactive) and the GI50 (SK-MEL-2) was > 100 µM (inactive). The GI50 (SK-MEL-5) was > 100 µM (inactive), the GI50 (SK-OV-3) was > 100 µM (inactive) and the GI50 (SN12C) was > 100 µM (inactive). The GI50 (SNB-19) was > 100 µM (inactive), the GI50 (SNB-75) was > 100 µM (inactive) and the GI50 (SW-620) was > 100 µM (inactive). For the same compound, the GI50 (T47D) was > 100 µM (inactive), the GI50 (TK-10) was > 100 µM (inactive) and the GI50 (U-251) was > 100 µM (inactive). The GI50 (UACC-257) was > 100 µM (inactive), the GI50 (UACC-62) was > 100 µM (inactive) and the GI50 (UO-31) was > 100 µM (inactive).

With `Cc1ccc(C)c2c1n1c(=O)n(C)c(=O)n21` the GI50 (786-0) was > 100 µM (inactive), the GI50 (A498) was > 100 µM (inactive) and the GI50 (A549) was > 100 µM (inactive). The GI50 (ACHN) was > 100 µM (inactive), the GI50 (BT-549) was > 100 µM (inactive) and the GI50 (CAKI-1) was > 100 µM (inactive). The GI50 (CCRF-CEM) was > 100 µM (inactive), the GI50 (COLO 205) was > 100 µM (inactive) and the GI50 (DU-145) was > 100 µM (inactive). For the same compound, the GI50 (EKVX) was > 100 µM (inactive), the GI50 (HCC 2998) was > 100 µM (inactive) and the GI50 (HCT-116) was > 100 µM (inactive). The GI50 (HCT-15) was > 100 µM, the GI50 (HL-60) was > 100 µM (inactive) and the GI50 (HOP-92) was > 100 µM (inactive). For the same compound, the GI50 (HT-29) was > 100 µM (inactive), the GI50 (Hs-578T) was > 100 µM (inactive) and the GI50 (IGROV-1) was > 100 µM (inactive). For the same compound, the GI50 (KM12) was > 100 µM (inactive), the GI50 (LOX IMVI) was > 100 µM (inactive) and the GI50 (M14) was > 100 µM (inactive). For the same compound, the GI50 (MCF7) was > 100 µM (inactive), the GI50 (MDA-MB-231) was > 100 µM (inactive) and the GI50 (MDA-MB-435) was > 100 µM (inactive). For the same compound, the GI50 (MDA-N) was > 100 µM (inactive), the GI50 (Malme-3M) was > 100 µM (inactive) and the GI50 (NCI-H226) was > 100 µM (inactive). The GI50 (NCI-H23) was > 100 µM (inactive), the GI50 (NCI-H460) was > 100 µM (inactive) and the GI50 (NCI-H522) was > 100 µM (inactive). The GI50 (NCI/ADR-RES) was > 100 µM (inactive), the GI50 (OVCAR-3) was > 100 µM (inactive) and the GI50 (OVCAR-4) was > 100 µM (inactive). The GI50 (OVCAR-5) was > 100 µM (inactive), the GI50 (OVCAR-8) was > 100 µM (inactive) and the GI50 (PC-3) was > 100 µM (inactive). The GI50 (RPMI-8226) was > 100 µM (inactive), the GI50 (RXF 393) was > 100 µM (inactive) and the GI50 (SF-268) was > 100 µM (inactive). The GI50 (SF-295) was > 100 µM (inactive), the GI50 (SF-539) was > 100 µM (inactive) and the GI50 (SK-MEL-28) was > 100 µM (inactive). For the same compound, the GI50 (SK-MEL-2) was > 100 µM (inactive), the GI50 (SK-MEL-5) was > 100 µM (inactive) and the GI50 (SK-OV-3) was > 100 µM (inactive). The GI50 (SN12C) was > 100 µM (inactive), the GI50 (SNB-19) was > 100 µM (inactive) and the GI50 (SNB-75) was > 100 µM (inactive). For the same compound, the GI50 (SW-620) was > 100 µM (inactive), the GI50 (T47D) was > 100 µM (inactive) and the GI50 (TK-10) was > 100 µM (inactive). The GI50 (U-251) was > 100 µM (inactive), the GI50 (UACC-257) was > 100 µM (inactive) and the GI50 (UACC-62) was > 100 µM (inactive). For the same compound, the GI50 (UO-31) was > 100 µM (inactive).

With `NC(CCC(=O)OCc1ccccc1)C(=O)NC(CCC(=O)OCc1ccccc1)C(=O)O` (configuration not stated) (H-Glu(OBn)-Glu(OBn)-OH; configuration not given here) the GI50 (786-0) was > 100 µM (inactive), the GI50 (A549) was > 100 µM (inactive) and the GI50 (ACHN) was > 100 µM (inactive). The GI50 (BT-549) was > 100 µM (inactive), the GI50 (CAKI-1) was > 100 µM (inactive) and the GI50 (CCRF-CEM) was > 100 µM (inactive). The GI50 (COLO 205) was > 100 µM (inactive), the GI50 (DU-145) was > 100 µM (inactive) and the GI50 (EKVX) was > 100 µM (inactive). For the same compound, the GI50 (HCC 2998) was > 100 µM (inactive), the GI50 (HCT-116) was > 100 µM (inactive) and the GI50 (HCT-15) was > 100 µM. The GI50 (HL-60) was > 100 µM (inactive), the GI50 (HOP-62) was > 100 µM (inactive) and the GI50 (HOP-92) was > 100 µM (inactive). For the same compound, the GI50 (HT-29) was > 100 µM (inactive), the GI50 (Hs-578T) was > 100 µM (inactive) and the GI50 (IGROV-1) was > 100 µM (inactive). For the same compound, the GI50 (K562) was > 100 µM (inactive), the GI50 (KM12) was > 100 µM (inactive) and the GI50 (LOX IMVI) was > 100 µM (inactive). The GI50 (M14) was > 100 µM (inactive), the GI50 (MCF7) was > 100 µM (inactive) and the GI50 (MDA-MB-231) was > 100 µM (inactive). The GI50 (MDA-MB-435) was > 100 µM (inactive), the GI50 (MDA-N) was > 100 µM (inactive) and the GI50 (MOLT-4) was > 100 µM (inactive). The GI50 (Malme-3M) was > 100 µM (inactive), the GI50 (NCI-H226) was > 100 µM (inactive) and the GI50 (NCI-H23) was > 100 µM (inactive). The GI50 (NCI-H460) was > 100 µM (inactive), the GI50 (NCI-H522) was > 100 µM (inactive) and the GI50 (NCI/ADR-RES) was > 100 µM (inactive). The GI50 (OVCAR-3) was > 100 µM (inactive), the GI50 (OVCAR-4) was > 100 µM (inactive) and the GI50 (OVCAR-5) was > 100 µM (inactive). The GI50 (OVCAR-8) was > 100 µM (inactive), the GI50 (PC-3) was > 100 µM (inactive) and the GI50 (RPMI-8226) was > 100 µM (inactive). For the same compound, the GI50 (RXF 393) was > 100 µM (inactive), the GI50 (SF-268) was > 100 µM (inactive) and the GI50 (SF-295) was > 100 µM (inactive). The GI50 (SK-MEL-28) was > 100 µM (inactive), the GI50 (SK-MEL-5) was > 100 µM (inactive) and the GI50 (SK-OV-3) was > 100 µM (inactive). For the same compound, the GI50 (SN12C) was > 100 µM (inactive), the GI50 (SNB-19) was > 100 µM (inactive) and the GI50 (SNB-75) was > 100 µM (inactive). For the same compound, the GI50 (SR) was > 100 µM (inactive), the GI50 (SW-620) was > 100 µM (inactive) and the GI50 (T47D) was > 100 µM (inactive). The GI50 (TK-10) was > 100 µM (inactive), the GI50 (U-251) was > 100 µM (inactive) and the GI50 (UACC-62) was > 100 µM (inactive). The GI50 (UO-31) was > 100 µM (inactive).
